What is called IC50 is the concentration at which inhibition is half-maximal. A lower IC50 goes with higher potency.

Molecules are shown by their SMILES.

The assay in a line: In vitro inhibitory activity against human neutrophil leukotriene B4 (LTB4) induced Chemotaxis.
`CC(Oc1ccc2c(c1)OC[C@@H](Cc1ccccn1)[C@@H]2O)c1ccc2ccccc2n1` (stereo partly drawn) [(3R,4S)-3-Pyridin-2-ylmethyl-7-(1-quinolin-2-yl-ethoxy)-chroman-4-ol] returned an IC50 of 0.22 µM. For `C[C@@H](Oc1ccc2c(c1)OC[C@@H](Cc1cccnc1)[C@@H]2O)c1ccc2ccccc2n1` [(3R,4S)-3-Pyridin-3-ylmethyl-7-((R)-1-quinolin-2-yl-ethoxy)-chroman-4-ol], the IC50 was 3.4 µM.

In the case of `C[C@H](Oc1ccc2c(c1)OC[C@@H](Cc1cccnc1)[C@@H]2O)c1ccc2ccccc2n1` [(3R,4S)-3-Pyridin-3-ylmethyl-7-((S)-1-quinolin-2-yl-ethoxy)-chroman-4-ol], the midpoint of inhibition, the IC50, lay at 6.1 µM. `CC(Oc1ccc2c(c1)OC[C@H](Cc1ccccn1)[C@@H]2O)c1ccc2ccccc2n1` (stereo partly drawn) [(3S,4S)-3-Pyridin-2-ylmethyl-7-(1-quinolin-2-yl-ethoxy)-chroman-4-ol] yielded a half-maximal inhibitory concentration (IC50) of 14 µM. In the case of `CC(Oc1ccc2c(c1)OC[C@H](Cc1cccnc1)[C@@H]2O)c1ccc2ccccc2n1` (stereo partly drawn) [(3S,4S)-3-Pyridin-3-ylmethyl-7-(1-quinolin-2-yl-ethoxy)-chroman-4-ol], the half-inhibitory concentration (IC50) turned out to be 38 µM.

The record behind these values is BindingDB's records for doi:10.1016/0960-894X(95)00135-G (1995).
